Experimental data: patent US20090283050A1, “FEED COMPOSITION AND METHOD FOR BREEDING ANIMALS” (KENKO CORPORATION, priority 2005, published 2009)

System: Salmonella
Assay: Antimicrobial effect (MIC, MBC) on Salmonella
Assay type: cell-based
Settings: compared with the other antimicrobial agents tested
Procedure: The antimicrobial effects of these samples were evaluated by the determination of Minimum Inhibitory Concentration (MIC) and Minimum Bactericidal Concentration (MBC).
In this connection, bacterial strains used herein were those obtained from enteric canal of broiler chicken.

`CC1(C)S[C@@H]2[C@H](NC(=O)[C@H](N)c3ccccc3)C(=O)N2[C@H]1C(=O)O` [Ampicillin] was tested, and the “antibacterial effect against Salmonella, in words” value was “quite weak antibacterial effect”.
